Measured values from patent publication US6355799B1, “Substituted benzene compounds, process for their preparation, and herbicidal and defoliant compositions containing them” (ISK Americas Incorporated, priority 1997, dated 2002).

How the values were obtained:
Format in all cases: in vivo
[1] = tested on: lambsquarters (Chenopodium album, CHEAL); assay: Pre-emerge test, greenhouse herbicide activity screening; conditions: rating scale 0-100, 14 days after application
Method in brief: (§1)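 Sandy loam pots; pre-emerge: sown 1 d pre-spray, surface-watered after, then bottom-watered. Post-emerge: sown 8–21 d before, 2–3 leaf stage, + 0.25% v/v NIS, bottom-watered. Acetone, 187 l/ha track spray, 15–1000 g ai/ha. 0–100 injury score, day 14.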

[2] = tested on: large crabgrass (Digitaria sanguinalis, DIGSA); assay: as above; conditions: rating scale 0-100, 14 days after application
Method in brief: as §1

[3] = tested on: common ragweed (Ambrosia artemisizfolia L., AMBEL); assay: as above; conditions: rating scale 0-100, 14 days after application
Method in brief: as §1

[4] = tested on: barnyardgrass (Echinochloa crus-galli, ECHCG); assay: as above; conditions: rating scale 0-100, 14 days after application
Method in brief: as §1

[5] = tested on: velvetleaf (Abutilon theophrasti, ABUTH); assay: as above; conditions: rating scale 0-100, 14 days after application
Method in brief: as §1

[6] = tested on: johnsongrass (Sorghum halepense, SORHA); assay: as above; conditions: rating scale 0-100, 14 days after application
Method in brief: as §1

[7] = tested on: green foxtail (Setaria viridis, SETVI); assay: as above; conditions: rating scale 0-100, 14 days after application
Method in brief: as §1

[8] = tested on: ivyleaf morningglory (Ipomoea hederacea, IPOHE); assay: as above; conditions: rating scale 0-100, 14 days after application
Method in brief: as §1

[9] = tested on: sicklepod (Cassia obtusifolia, CASOB); assay: as above; conditions: rating scale 0-100, 14 days after application
Method in brief: as §1

[10] = tested on: lambsquarters (Chenopodium album, CHEAL); assay: Post-emerge test, greenhouse herbicide activity screening; conditions: rating scale 0-100 (0 no damage, 100 complete death), 14 days after application
Method in brief: (§2)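 Rating: 0–100 visual injury, 14 DAA. Application: acetone, 187 l/ha, 15–1000 g ai/ha, flat-fan track sprayer with nozzle 40–45 cm above soil or canopy. Post-emerge runs used 0.25% v/v surfactant on 2–3 leaf plants.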

[11] = tested on: large crabgrass (Digitaria sanguinalis, DIGSA); assay: as above; conditions: rating scale 0-100 (0 no damage, 100 complete death), 14 days after application
Method in brief: as §2

[12] = tested on: barnyardgrass (Echinochloa crus-galli, ECHCG); assay: as above; conditions: rating scale 0-100 (0 no damage, 100 complete death), 14 days after application
Method in brief: as §2

[13] = tested on: redroot pigweed (Amaranthus retroflexus, AMARE); assay: as above; conditions: rating scale 0-100 (0 no damage, 100 complete death), 14 days after application
Method in brief: as §2

[14] = tested on: velvetleaf (Abutilon theophrasti, ABUTH); assay: as above; conditions: rating scale 0-100 (0 no damage, 100 complete death), 14 days after application
Method in brief: as §2

[15] = tested on: johnsongrass (Sorghum halepense, SORHA); assay: as above; conditions: rating scale 0-100 (0 no damage, 100 complete death), 14 days after application
Method in brief: as §2

[16] = tested on: green foxtail (Setaria viridis, SETVI); assay: as above; conditions: rating scale 0-100 (0 no damage, 100 complete death), 14 days after application
Method in brief: as §2

[17] = tested on: ivyleaf morningglory (Ipomoea hederacea, IPOHE); assay: as above; conditions: rating scale 0-100 (0 no damage, 100 complete death), 14 days after application
Method in brief: as §2

[18] = tested on: sicklepod (Cassia obtusifolia, CASOB); assay: as above; conditions: rating scale 0-100 (0 no damage, 100 complete death), 14 days after application
Method in brief: as §2

[19] = tested on: field corn (Zea mays L., var. Dekalb 535, CORN); assay: Post-emerge test, crop safety; conditions: rating scale 0-100 (0 no damage, 100 complete death), 14 days after application
Method in brief: as §1

[20] = tested on: upland rice (Oryza sp., var. Tebonnet, RICE); assay: Post-emerge test, crop safety; conditions: rating scale 0-100 (0 no damage, 100 complete death), 14 days after application
Method in brief: as §1

[21] = tested on: field corn (Zea mays L., var. Dekalb 535, CORN); assay: Pre-emerge test, crop safety; conditions: rating scale 0-100, 14 days after application
Method in brief: (§3)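 Applied at 15–1000 g ai/ha from acetone in 187 l/ha spray volume. Post-emergence applications included 0.25% v/v non-ionic surfactant and reached plants sown 8–21 days before. Pre-emergence applications were incorporated by surface watering. Efficacy or crop damage was rated on a 0–100 scale after 14 days.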

[22] = tested on: upland rice (Oryza sp., var. Tebonnet, RICE); assay: Pre-emerge test, crop safety; conditions: rating scale 0-100, 14 days after application
Method in brief: as §3

[23] = tested on: redroot pigweed (Amaranthus retroflexus, AMARE); assay: Pre-emerge test, greenhouse herbicide activity screening; conditions: rating scale 0-100, 14 days after application
Method in brief: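 Visual ratings on a 0-100 scale (0 no damage, 100 all plants dead) were taken at 14 days after treatment. Rates of 15-1000 g ai/ha in acetone, 187 l/ha, were sprayed onto soil one day after planting (pre-emerge) or onto 2-3 leaf plants with 0.25% v/v surfactant (post-emerge).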

C=CCOC(=O)C(C)(Cl)Cc1c(OC)c(Cl)cc(F)c1-n1c(=O)cc(C(F)(F)F)n(C)c1=O (stereo not shown) [14-43] was tested, and the “Pre-emerge herbicidal activity, phytotoxicity rating CHEAL” value ([1]; 63 g ai/ha) was 100, the “Pre-emerge herbicidal activity, phytotoxicity rating CHEAL” value ([1]; 250 g ai/ha) was 100 and the “Pre-emerge herbicidal activity, phytotoxicity rating DIGSA” value ([2]; 63 g ai/ha) was 80. The “Pre-emerge herbicidal activity, phytotoxicity rating DIGSA” value ([2]; 250 g ai/ha) was 100, the “Pre-emerge herbicidal activity, phytotoxicity rating AMBEL” value ([3]; 63 g ai/ha) was 0 and the “Pre-emerge herbicidal activity, phytotoxicity rating AMBEL” value ([3]; 250 g ai/ha) was 100. For the same molecule, the “Pre-emerge herbicidal activity, phytotoxicity rating ECHCG” value ([4]; 63 g ai/ha) was 0, the “Pre-emerge herbicidal activity, phytotoxicity rating ECHCG” value ([4]; 250 g ai/ha) was 80 and the “Pre-emerge herbicidal activity, phytotoxicity rating ABUTH” value ([5]; 63 g ai/ha) was 90. For the same molecule, the “Pre-emerge herbicidal activity, phytotoxicity rating ABUTH” value ([5]; 250 g ai/ha) was 100, the “Pre-emerge herbicidal activity, phytotoxicity rating SORHA” value ([6]; 63 g ai/ha) was 20 and the “Pre-emerge herbicidal activity, phytotoxicity rating SORHA” value ([6]; 250 g ai/ha) was 30. The “Pre-emerge herbicidal activity, phytotoxicity rating SETVI” value ([7]; 63 g ai/ha) was 30, the “Pre-emerge herbicidal activity, phytotoxicity rating SETVI” value ([7]; 250 g ai/ha) was 95 and the “Pre-emerge herbicidal activity, phytotoxicity rating IPOHE” value ([8]; 63 g ai/ha) was 0. For the same molecule, the “Pre-emerge herbicidal activity, phytotoxicity rating IPOHE” value ([8]; 250 g ai/ha) was 0, the “Pre-emerge herbicidal activity, phytotoxicity rating CASOB” value ([9]; 63 g ai/ha) was 0 and the “Pre-emerge herbicidal activity, phytotoxicity rating CASOB” value ([9]; 250 g ai/ha) was 0. For the same molecule, the “Post-emerge Herbicidal Activity, phytotoxicity rating CHEAL” value ([10]; Rate 63 g ai/ha) was 100, the “Post-emerge Herbicidal Activity, phytotoxicity rating CHEAL” value ([10]; Rate 250 g ai/ha) was 100 and the “Post-emerge Herbicidal Activity, phytotoxicity rating DIGSA” value ([11]; Rate 63 g ai/ha) was 80. For the same molecule, the “Post-emerge Herbicidal Activity, phytotoxicity rating DIGSA” value ([11]; Rate 250 g ai/ha) was 100, the “Post-emerge Herbicidal Activity, phytotoxicity rating ECHCG” value ([12]; Rate 63 g ai/ha) was 100 and the “Post-emerge Herbicidal Activity, phytotoxicity rating ECHCG” value ([12]; Rate 250 g ai/ha) was 100. The “Post-emerge Herbicidal Activity, phytotoxicity rating AMARE” value ([13]; Rate 63 g ai/ha) was 100, the “Post-emerge Herbicidal Activity, phytotoxicity rating AMARE” value ([13]; Rate 250 g ai/ha) was 100 and the “Post-emerge Herbicidal Activity, phytotoxicity rating ABUTH” value ([14]; Rate 63 g ai/ha) was 100. The “Post-emerge Herbicidal Activity, phytotoxicity rating ABUTH” value ([14]; Rate 250 g ai/ha) was 100, the “Post-emerge Herbicidal Activity, phytotoxicity rating SORHA” value ([15]; Rate 63 g ai/ha) was 80 and the “Post-emerge Herbicidal Activity, phytotoxicity rating SORHA” value ([15]; Rate 250 g ai/ha) was 95. The “Post-emerge Herbicidal Activity, phytotoxicity rating SETVI” value ([16]; Rate 63 g ai/ha) was 90, the “Post-emerge Herbicidal Activity, phytotoxicity rating SETVI” value ([16]; Rate 250 g ai/ha) was 100 and the “Post-emerge Herbicidal Activity, phytotoxicity rating IPOHE” value ([17]; Rate 63 g ai/ha) was 95. For the same molecule, the “Post-emerge Herbicidal Activity, phytotoxicity rating IPOHE” value ([17]; Rate 250 g ai/ha) was 100, the “Post-emerge Herbicidal Activity, phytotoxicity rating CASOB” value ([18]; Rate 63 g ai/ha) was 40 and the “Post-emerge Herbicidal Activity, phytotoxicity rating CASOB” value ([18]; Rate 250 g ai/ha) was 90. For the same molecule, the “Post-emerge phytotoxicity rating CORN (crop damage)” value ([19]; Rate 63 g ai/ha) was 95, the “Post-emerge phytotoxicity rating CORN (crop damage)” value ([19]; Rate 250 g ai/ha) was 100 and the “Post-emerge phytotoxicity rating RICE (crop damage)” value ([20]; Rate 63 g ai/ha) was 95. The “Post-emerge phytotoxicity rating RICE (crop damage)” value ([20]; Rate 250 g ai/ha) was 100, the “Pre-emerge phytotoxicity rating, crop damage CORN” value ([21]; 63 g ai/ha) was 0 and the “Pre-emerge phytotoxicity rating, crop damage CORN” value ([21]; 250 g ai/ha) was 20. For the same molecule, the “Pre-emerge phytotoxicity rating, crop damage RICE” value ([22]; 63 g ai/ha) was 10, the “Pre-emerge phytotoxicity rating, crop damage RICE” value ([22]; 250 g ai/ha) was 40 and the “Pre-emerge herbicidal activity, phytotoxicity rating AMARE” value ([23]; 63 g ai/ha) was 100. The “Pre-emerge herbicidal activity, phytotoxicity rating AMARE” value ([23]; 250 g ai/ha) was 100.
